Measurements taken from PubChem BioAssay AID1963871 (Molecular Pharmacology Branch, DTP, NCI, 2024).

Test system: KRAS-mutant PDC multicell tumor spheroid viability
Assay: Anticancer human tumor 521955-158-R2-J5-PDC patient-derived pancreatic carcinoma cell line growth inhibition [KRAS2]
Settings: for IC50: curve of first compound; for viability, T/C: stronger effect = lower value
Outline: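 KRAS-mutant tumor cells were grown as spheroids with HUVEC endothelial cells and human MSCs as stroma. Targeted agents were tested alone and with KRAS pathway inhibitors. Doses started at or near clinical Cmax, or 10 microM, descending half-log.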

[1] = second compound 0.1 µM, first compound 0.0316 µM
[2] = second compound 0.1 µM, first compound 0.1 µM
[3] = second compound 0.1 µM, first compound 0.316 µM
[4] = second compound 0.1 µM, first compound 1 µM
[5] = second compound 0.1 µM, first compound 3.16 µM
[6] = second compound 0.1 µM, first compound 10 µM
[7] = second compound 0.316 µM, first compound 0.0316 µM
[8] = second compound 0.316 µM, first compound 0.1 µM
[9] = second compound 0.316 µM, first compound 0.316 µM
[10] = second compound 0.316 µM, first compound 1 µM
[11] = second compound 0.316 µM, first compound 3.16 µM
[12] = second compound 0.316 µM, first compound 10 µM
[13] = second compound 1 µM, first compound 0.0316 µM
[14] = second compound 1 µM, first compound 0.1 µM
[15] = second compound 1 µM, first compound 0.316 µM
[16] = second compound 1 µM, first compound 1 µM
[17] = second compound 1 µM, first compound 3.16 µM
[18] = second compound 1 µM, first compound 10 µM
[19] = second compound 3.16 µM, first compound 0.0316 µM
[20] = second compound 3.16 µM, first compound 0.1 µM
[21] = second compound 3.16 µM, first compound 0.316 µM
[22] = second compound 3.16 µM, first compound 1 µM
[23] = second compound 3.16 µM, first compound 3.16 µM
[24] = second compound 3.16 µM, first compound 10 µM
[25] = second compound 10 µM, first compound 0.0316 µM
[26] = second compound 10 µM, first compound 0.1 µM
[27] = second compound 10 µM, first compound 0.316 µM
[28] = second compound 10 µM, first compound 1 µM
[29] = second compound 10 µM, first compound 3.16 µM
[30] = second compound 10 µM, first compound 10 µM
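Note: viability read after seven days of drug exposure.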

SMILES | IC50 (second compound 0.1 µM) [nM] | IC50 (second compound 0.316 µM) [nM] | IC50 (second compound 1 µM) [nM] | IC50 (second compound 3.16 µM) [nM] | IC50 (second compound 10 µM) [nM] | viability, T/C [1] [%] | viability, T/C [2] [%] | viability, T/C [3] [%] | viability, T/C [4] [%] | viability, T/C [5] [%] | viability, T/C [6] [%] | viability, T/C [7] [%] | viability, T/C [8] [%] | viability, T/C [9] [%] | viability, T/C [10] [%] | viability, T/C [11] [%] | viability, T/C [12] [%] | viability, T/C [13] [%] | viability, T/C [14] [%] | viability, T/C [15] [%] | further results
COC(=O)c1ccc2c(C(=Nc3ccc(N(C)C(=O)CN4CCN(C)CC4)cc3)c3ccccc3)c(O)[nH]c2c1 + CC1OCC2(CCN(c3cnc(Sc4ccnc(N)c4Cl)c(N)n3)CC2)C1N | 2490 | 1800 | 1070 | 1080 | 1120 | 79.4 | 80.7 | 72.9 | 80.8 | 42.5 | 0.38 | 66.3 | 70.5 | 60 | 85.4 | 30.1 | 0.37 | 46.8 | 46.7 | 55.9 | viability, T/C [16]: 57%; viability, T/C [17]: 26.6%; viability, T/C [18]: 0.4%; viability, T/C [19]: 56%; viability, T/C [20]: 58.6%; viability, T/C [21]: 58%; viability, T/C [22]: 51.7%; viability, T/C [23]: 23.2%; viability, T/C [24]: 0.51%; viability, T/C [25]: 61.1%; viability, T/C [26]: 58.3%; viability, T/C [27]: 64.3%; viability, T/C [28]: 55.4%; viability, T/C [29]: 0.64%; viability, T/C [30]: 0.38%
COc1cc(Nc2ncc3c(n2)-c2ccc(Cl)cc2C(c2c(F)cccc2OC)=NC3)ccc1C(=O)O + CC1OCC2(CCN(c3cnc(Sc4ccnc(N)c4Cl)c(N)n3)CC2)C1N | < 31.6 | < 31.6 | < 31.6 | < 31.6 | < 31.6 | 44.6 | 45.2 | 39.7 | 38.8 | 37.2 | 37.4 | 41 | 39.3 | 45.5 | 34.4 | 36.4 | 35.8 | 39.5 | 35.1 | 38.1 | viability, T/C [16]: 36%; viability, T/C [17]: 34.5%; viability, T/C [18]: 30.5%; viability, T/C [19]: 38.4%; viability, T/C [20]: 31.1%; viability, T/C [21]: 30.8%; viability, T/C [22]: 30%; viability, T/C [23]: 28.2%; viability, T/C [24]: 33.6%; viability, T/C [25]: 37.8%; viability, T/C [26]: 37.7%; viability, T/C [27]: 36%; viability, T/C [28]: 37.1%; viability, T/C [29]: 27.1%; viability, T/C [30]: 31.1%
COc1cc2nccc(Oc3ccc(NC(=O)C4(C(=O)Nc5ccc(F)cc5)CC4)cc3)c2cc1OC + CC1OCC2(CCN(c3cnc(Sc4ccnc(N)c4Cl)c(N)n3)CC2)C1N | 8050 | 5530 | 4800 | < 31.6 | 1090 | 75.7 | 90.5 | 74.8 | 77.8 | 64.1 | 46.7 | 64.3 | 74.3 | 63.5 | 71 | 60.3 | 37.8 | 66.8 | 64.5 | 65.6 | viability, T/C [16]: 60.6%; viability, T/C [17]: 61%; viability, T/C [18]: 32%; viability, T/C [19]: 42.4%; viability, T/C [20]: 46.4%; viability, T/C [21]: 51.4%; viability, T/C [22]: 52.5%; viability, T/C [23]: 46.8%; viability, T/C [24]: 46.2%; viability, T/C [25]: 44.9%; viability, T/C [26]: 48.7%; viability, T/C [27]: 53.2%; viability, T/C [28]: 56.5%; viability, T/C [29]: 40.1%; viability, T/C [30]: 27.7%
